Measurements from Sander's compilation of Henry's law constants (doi:10.1007/bf02268351).

Assay: Henry solubility constant Hcp at 298.15 K (mol/(m3 Pa))
Conditions: reference: Kolb et al. (1992)

| SMILES | Henry solubility constant Hcp |
| --- | --- |
| CC(Cl)(Cl)Cl [1,1,1-trichloroethane] | 0.00079 |
| Cc1ccccc1C [1,2-dimethylbenzene] | 0.0014 |
| CC(C)O [2-propanol] | 0.79 |
| CC(=O)CC(C)C [4-methyl-2-pentanone] | 0.043 |
| CCCCOC(C)=O [butyl ethanoate] | 0.023 |
| C1CCCCC1 [cyclohexane] | 5.4e-05 |
| CCOC(C)=O [ethyl ethanoate] | 0.044 |
| CCCCCC [hexane] | 0.00024 |
| Cc1ccccc1 [methylbenzene] | 0.0016 |
| ClC(Cl)=C(Cl)Cl [tetrachloroethene] | 0.00081 |
